Tests used:
[1] = target: T1, Bovine CLEC4f protein (Bos taurus, UniProt A0AAA9RVQ7); assay: affinity chromatography on galactose-Sepharose; type: binding; conditions: immobilised galactose (divinyl sulfone coupling); 25 mM CaCl2, 150 mM NaCl, pH 7.8; Ca2+-dependent, eluted with EDTA
T1 construct: C-terminal fragment of the extracellular domain (neck + CRD), E. coli BL21(DE3) inclusion bodies, renatured; 35 kDa calculated; trimer; borders only in supplement
T1 sequence (A0AAA9RVQ7 274-591 limits assumed): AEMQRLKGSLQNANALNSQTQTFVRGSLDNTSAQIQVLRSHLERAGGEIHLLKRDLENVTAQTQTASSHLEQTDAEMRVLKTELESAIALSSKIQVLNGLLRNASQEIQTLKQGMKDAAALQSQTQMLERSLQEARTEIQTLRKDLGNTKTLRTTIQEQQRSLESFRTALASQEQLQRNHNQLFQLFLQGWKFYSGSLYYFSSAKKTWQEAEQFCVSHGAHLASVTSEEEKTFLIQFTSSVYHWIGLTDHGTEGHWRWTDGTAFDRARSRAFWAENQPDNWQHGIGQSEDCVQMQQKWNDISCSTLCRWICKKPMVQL

[2] = target: T2, Murine CLEC4f protein; murine Kupffer cell receptor (Mus musculus, UniProt P70194); assay: affinity re-purification of the labelled protein on galactose-Sepharose; type: binding; conditions: immobilised galactose; 25 mM CaCl2, 150 mM NaCl, pH 7.8; eluted with EDTA; fluorescein-labelled protein
T2 construct: fluorescein isothiocyanate labelled
T2 sequence (P70194 70-548 limits assumed): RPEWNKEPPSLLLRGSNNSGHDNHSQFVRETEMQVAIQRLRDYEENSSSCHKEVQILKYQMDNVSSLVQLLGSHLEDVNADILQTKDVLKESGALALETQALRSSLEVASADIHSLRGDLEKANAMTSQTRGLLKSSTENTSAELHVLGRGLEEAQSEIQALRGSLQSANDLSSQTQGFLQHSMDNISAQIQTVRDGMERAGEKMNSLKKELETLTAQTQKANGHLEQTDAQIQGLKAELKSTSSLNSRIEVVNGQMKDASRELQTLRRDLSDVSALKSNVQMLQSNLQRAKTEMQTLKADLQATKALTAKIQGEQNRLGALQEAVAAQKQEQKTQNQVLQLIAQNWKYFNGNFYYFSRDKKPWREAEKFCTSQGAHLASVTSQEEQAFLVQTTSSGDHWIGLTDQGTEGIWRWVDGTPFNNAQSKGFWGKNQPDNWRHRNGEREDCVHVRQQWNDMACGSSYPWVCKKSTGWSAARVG

In the case of `OC[C@H]1OC(O)[C@H](O)[C@@H](O)[C@H]1O` (some centres unmarked) [galactose], the “affinity chromatography on galactose-Sepharose” value [1] is reported as “confirming that it has galactose-binding activity” and the “affinity re-purification of the labelled protein on galactose-Sepharose” value [2] is reported as “the chimpanzee, bovine and murine proteins all bind to galactose”.

Reference: article PMC6422238, “Absence of a human ortholog of rodent Kupffer cell galactose-binding receptor encoded by the CLEC4f gene” (Glycobiology, 2019)
